# Test results from ChEMBL document CHEMBL1128886, “Synthesis and pharmacological evaluation of a novel series of 5-aryl benzimidazole angiotensin II receptor antagonists” (1995).
# Active and inactive are the calls of the source. No cut-off for these calls is given here.
# Tests used:
# [1] = test system: Rattus norvegicus; test: Evaluated in vivo for its ability to block the pressor response to Ang II in pithed rats following oral administration.; type: functional
# [2] = molecular target: T1, Type-1 angiotensin II receptor (Oryctolagus cuniculus) (UniProt P34976); test: In vitro antagonist activity against Angiotensin II Receptor (Ang II) in isolated rabbit thoracic aorta.; type: functional, tissue-based
# T1 sequence (whole entry): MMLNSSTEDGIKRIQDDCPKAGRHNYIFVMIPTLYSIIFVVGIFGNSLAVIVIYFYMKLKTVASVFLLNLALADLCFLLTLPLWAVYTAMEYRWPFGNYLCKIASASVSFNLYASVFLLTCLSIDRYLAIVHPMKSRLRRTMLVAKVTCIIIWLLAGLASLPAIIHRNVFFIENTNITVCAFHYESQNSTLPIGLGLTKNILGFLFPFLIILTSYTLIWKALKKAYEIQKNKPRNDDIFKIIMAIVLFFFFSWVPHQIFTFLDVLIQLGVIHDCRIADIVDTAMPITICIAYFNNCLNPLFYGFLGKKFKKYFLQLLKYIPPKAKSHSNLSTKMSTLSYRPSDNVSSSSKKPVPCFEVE
# [3] = test system: Rattus norvegicus; test: Evaluated in vivo for its ability to block the pressor response to Ang II in pithed rats following oral administration; NA means not active at the dose (10 mg/kg) and time tested (4 h); type: functional, organism-based
SMILES,pKB [2],KB [1] [mg/kg],KB [3]
CCCCCC[C@H](C(=O)N1C[C@@H](Oc2ccc(CC(=O)O)cc2)C[C@H]1C(=O)O)n1cnc(NC(=O)c2ccccc2S(=O)(=O)O)c1,9.7,2.8,
CCCCCC[C@H](C(=O)N1C[C@@H](Oc2ccc(CC(=O)O)cc2)C[C@H]1C(=O)O)n1cnc2cc(-c3ccccc3S(=O)(=O)O)ccc21,9,,inactive
CCCCCC[C@@H](C(=O)N1C[C@@H](Oc2ccc(CC(=O)O)cc2)C[C@H]1C(=O)O)n1cnc2cc(-c3ccccc3S(=O)(=O)O)ccc21,7.8,,
CCCCCCC(C(=O)O)n1cnc2cc(-c3ccccc3S(=O)(=O)O)ccc21 (stereo in doubt),5.6,,
CCCCCCC(C(=O)O)n1cnc2cc(-c3ccccc3S(=O)(=O)O)ccc21 (stereo in doubt; 4),7.7,,inactive

# The next lines start with results.
pKB [2],SMILES,KB [1] [mg/kg],KB [3]
8.4,CCCCCC[C@@H](C(=O)N1C[C@@H](Oc2ccc(CC(=O)O)cc2)C[C@H]1C(=O)O)n1cnc(NC(=O)c2ccccc2S(=O)(=O)O)c1,,inactive
9.1,CCCCCC[C@H](C(=O)N1C[C@@H](Oc2ccccc2)C[C@H]1C(=O)O)n1cnc(NC(=O)c2ccccc2S(=O)(=O)O)c1,,
7.2,CCCCCCC(C(=O)O)n1cnc(NC(=O)c2ccccc2S(=O)(=O)O)c1 (centres undefined),,inactive
7.6,CCCCCC[C@@H](C(=O)N1C[C@@H](Oc2ccccc2)C[C@H]1C(=O)O)n1cnc(NC(=O)c2ccccc2S(=O)(=O)O)c1,,
